In ChEMBL document CHEMBL1201862, “PubChem BioAssay data set” (2004):
Where “and” joins values, the source holds several entries; their conditions need not be identical. Equal values may be shown once.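 Exposure lasted 48 hours, with cells grown in 96-well plates and compounds tested at five concentrations. At the GI50, growth is halved.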 Calls of active or inactive are those of the source. Cut-off read from the data, not from the text of the source: active = GI50 up to about 1.1 µM and inactive = higher.

Experiments:
Assay in all cases: NCI-60 cell line screen, 48 h
[1] = system: TK-10
[2] = system: 786-0
[3] = system: OVCAR-3
[4] = system: M14
[5] = system: SK-MEL-5
[6] = system: SW-620
[7] = system: UACC-257
[8] = system: MDA-N
[9] = system: U-251
[10] = system: PC-3
[11] = system: DU-145
[12] = system: HOP-92
[13] = system: LOX IMVI
[14] = system: SK-OV-3
[15] = system: K562
[16] = system: IGROV-1
[17] = system: SK-MEL-28
[18] = system: NCI-H23
[19] = system: RXF 393
[20] = system: NCI-H522

c1ccc2c(c1)c1c(n2CCOCCN2CCCC2)CCCC1
GI50 [1]: 19.5 µM (inactive) | GI50 [2]: 16.1 µM (inactive) | GI50 [3]: 25.4 µM (inactive) | GI50 [4]: 15.6 µM (inactive) | GI50 [5]: 15.2 µM (inactive) | GI50 [6]: 16.2 µM (inactive) | GI50 [7]: 22.4 µM (inactive) | GI50 [8]: 19.4 µM (inactive) | GI50 [9]: 13.1 µM (inactive) | GI50 [10]: 18.6 µM (inactive) | GI50 [11]: 30.3 µM (inactive) | GI50 [12]: 27.7 µM (inactive) | GI50 [13]: 18.5 µM (inactive) | GI50 [14]: 31.3 µM (inactive) | GI50 [15]: 15 µM (inactive) | GI50 [16]: 23.7 µM (inactive) | GI50 [17]: 16 µM (inactive) | GI50 [18]: 22.6 µM (inactive)

Cc1ccc(SC2C(=O)C3CC(OCc4ccccc4)C2(C)C3(C)C)cc1 (stereo not given)
GI50 [1]: > 100 µM (inactive) | GI50 [2]: > 100 µM (inactive) | GI50 [3]: > 100 µM (inactive) | GI50 [4]: > 100 µM (inactive) | GI50 [19]: 52 µM (inactive) | GI50 [5]: > 100 µM (inactive) | GI50 [6]: > 100 µM (inactive) | GI50 [8]: > 100 µM (inactive) | GI50 [9]: 39.3 µM (inactive) | GI50 [10]: 12.4 µM (inactive) | GI50 [11]: > 100 µM (inactive) | GI50 [12]: 29.6 µM (inactive) | GI50 [14]: > 100 µM (inactive) | GI50 [15]: 32.9 µM (inactive) | GI50 [16]: > 100 µM (inactive) | GI50 [17]: > 100 µM (inactive) | GI50 [18]: 46.8 µM (inactive)

COc1cccc(-c2cc(O)c3cc(C)cnc3n2)c1
GI50 [2]: 0.0488 µM (active) | GI50 [3]: 0.049 µM (active) | GI50 [4]: 0.0543 µM (active) | GI50 [19]: 0.0211 µM (active) | GI50 [5]: 0.0787 µM (active) | GI50 [6]: 0.06 µM (active) | GI50 [7]: > 100 µM (inactive) | GI50 [20]: 0.0389 µM (active) | GI50 [8]: 0.0106 µM (active) | GI50 [9]: 0.0473 µM (active) | GI50 [10]: 0.0467 µM (active) | GI50 [11]: 0.308 µM (active) | GI50 [13]: 0.0512 µM (active) | GI50 [14]: 0.283 µM (active) | GI50 [15]: 0.0381 µM (active) | GI50 [16]: 0.469 µM (active) | GI50 [17]: 0.0787 µM (active) | GI50 [18]: 0.203 µM (active)

CN(C)c1c(C2CC(O)C(CO)O2)c(=O)c1=O (stereo not given)
GI50 [1]: > 100 µM (inactive) | GI50 [2]: > 100 µM (inactive) | GI50 [3]: > 100 µM (inactive) | GI50 [4]: > 100 µM (inactive) | GI50 [6]: > 100 µM (inactive) | GI50 [7]: > 100 µM (inactive) | GI50 [20]: > 100 µM (inactive) | GI50 [8]: > 100 µM (inactive) | GI50 [9]: > 100 µM (inactive) | GI50 [10]: > 100 µM (inactive) | GI50 [11]: > 100 µM (inactive) | GI50 [12]: > 100 µM (inactive) | GI50 [13]: > 100 µM (inactive) | GI50 [14]: > 100 µM (inactive) | GI50 [15]: > 100 µM (inactive) | GI50 [16]: > 100 µM (inactive) | GI50 [17]: > 100 µM (inactive)

CC(=O)NCC1(c2ccccc2)CCN(CC2COc3ccccc3O2)CC1 (stereo not given) [ACOXATRINE]
GI50 [1]: > 100 µM (inactive) | GI50 [2]: > 100 µM (inactive) | GI50 [3]: > 100 µM (inactive) | GI50 [4]: > 100 µM (inactive) | GI50 [19]: > 100 µM (inactive) | GI50 [5]: > 100 µM (inactive) | GI50 [6]: > 100 µM (inactive) | GI50 [7]: > 100 µM (inactive) | GI50 [20]: > 100 µM (inactive) | GI50 [8]: > 100 µM (inactive) | GI50 [9]: > 100 µM (inactive) | GI50 [10]: > 100 µM (inactive) | GI50 [11]: > 100 µM (inactive) | GI50 [13]: 62.2 µM (inactive) | GI50 [14]: > 100 µM (inactive) | GI50 [15]: > 100 µM (inactive) | GI50 [16]: > 100 µM (inactive) | GI50 [17]: > 100 µM (inactive) | GI50 [18]: > 100 µM (inactive)

CC(=O)OCC1OC(SC2=NC(=O)CS2)C(OC(C)=O)C(OC(C)=O)C1OC(C)=O (stereo not given)
GI50 [1]: 53.7 µM (inactive) | GI50 [2]: > 100 µM (inactive) | GI50 [3]: > 100 µM (inactive) | GI50 [4]: > 100 µM (inactive) | GI50 [19]: > 100 µM (inactive) | GI50 [5]: > 100 µM (inactive) | GI50 [6]: > 100 µM (inactive) | GI50 [7]: > 100 µM (inactive) | GI50 [20]: 47 µM (inactive) and 78.9 µM (inactive) | GI50 [8]: > 100 µM (inactive) | GI50 [10]: 84.1 µM (inactive) and 95.5 µM (inactive) | GI50 [11]: > 100 µM (inactive) | GI50 [13]: > 100 µM (inactive) | GI50 [14]: > 100 µM (inactive) | GI50 [15]: 43.5 µM (inactive) and 40 µM (inactive) | GI50 [16]: > 100 µM (inactive) | GI50 [17]: > 100 µM (inactive) | GI50 [18]: > 100 µM (inactive)

N#C[C@@]12CCCC(=O)[C@@H]1[C@H]1CCC[C@H]12
GI50 [1]: 19.9 µM (inactive) | GI50 [2]: 14.7 µM (inactive) | GI50 [3]: 10.3 µM (inactive) | GI50 [4]: 12.9 µM (inactive) | GI50 [5]: 15.8 µM (inactive) | GI50 [6]: 20.6 µM (inactive) | GI50 [7]: 20.2 µM (inactive) | GI50 [8]: 18.8 µM (inactive) | GI50 [9]: 17.2 µM (inactive) | GI50 [10]: 13.9 µM (inactive) | GI50 [11]: 14.9 µM (inactive) | GI50 [12]: 11.5 µM (inactive) | GI50 [13]: 14.4 µM (inactive) | GI50 [14]: 14.7 µM (inactive) | GI50 [15]: 17.7 µM (inactive) | GI50 [16]: 16.5 µM (inactive) | GI50 [17]: 17.7 µM (inactive) | GI50 [18]: 16.1 µM (inactive)

C=C(C)[C@H]1CC(=O)/C(C)=C\CC/C(C)=C/CC[C@@]2(C)O[C@@H]2C1
GI50 [1]: 31.9 µM (inactive) | GI50 [2]: 47.5 µM (inactive) | GI50 [3]: 17 µM (inactive) | GI50 [4]: 32.5 µM (inactive) | GI50 [5]: 23.7 µM (inactive) | GI50 [6]: 46.3 µM (inactive) | GI50 [7]: 81.7 µM (inactive) | GI50 [8]: 35.2 µM (inactive) | GI50 [9]: 22.5 µM (inactive) | GI50 [10]: 24.8 µM (inactive) | GI50 [11]: 17.7 µM (inactive) | GI50 [12]: 48.5 µM (inactive) | GI50 [13]: 10.9 µM (inactive) | GI50 [14]: 24.4 µM (inactive) | GI50 [15]: 28.4 µM (inactive) | GI50 [16]: 29 µM (inactive) | GI50 [17]: 19.2 µM (inactive) | GI50 [18]: 22.3 µM (inactive)

CC(=O)OC1[C@H](OC(C)=O)C2=C(C)[C@@H](OC(C)=O)C[C@@]2(C(C)(C)O)[C@@H](OC(C)=O)[C@H]2[C@@]1(C)[C@@H](OC(C)=O)CC(OC(C)=O)[C@]21CO1 (stereo not given in full)
GI50 [1]: > 100 µM (inactive) | GI50 [2]: > 100 µM (inactive) | GI50 [3]: > 100 µM (inactive) | GI50 [4]: > 100 µM (inactive) | GI50 [19]: > 100 µM (inactive) | GI50 [5]: > 100 µM (inactive) | GI50 [6]: > 100 µM (inactive) | GI50 [7]: > 100 µM (inactive) | GI50 [20]: > 100 µM (inactive) | GI50 [8]: > 100 µM (inactive) | GI50 [9]: > 100 µM (inactive) | GI50 [10]: > 100 µM (inactive) | GI50 [11]: > 100 µM (inactive) | GI50 [13]: > 100 µM (inactive) | GI50 [14]: > 100 µM (inactive) | GI50 [15]: > 100 µM (inactive) | GI50 [17]: > 100 µM (inactive) | GI50 [18]: > 100 µM (inactive)

O=C(NN=C1CCCCC1)Nc1ccccc1Cl
GI50 [1]: > 100 µM (inactive) | GI50 [2]: > 100 µM (inactive) | GI50 [3]: 16.4 µM (inactive) | GI50 [4]: 29.8 µM (inactive) | GI50 [5]: 27.3 µM (inactive) | GI50 [6]: 43.8 µM (inactive) | GI50 [7]: 78.7 µM (inactive) | GI50 [20]: 23.1 µM (inactive) | GI50 [8]: 18.1 µM (inactive) | GI50 [9]: 84.5 µM (inactive) | GI50 [10]: > 100 µM (inactive) | GI50 [11]: 86.1 µM (inactive) | GI50 [12]: 23.6 µM (inactive) | GI50 [13]: 53.7 µM (inactive) | GI50 [14]: 55.6 µM (inactive) | GI50 [15]: 37.7 µM (inactive) | GI50 [16]: 26.5 µM (inactive) | GI50 [17]: 79.3 µM (inactive) | GI50 [18]: 57.8 µM (inactive)

C=CCOC(=O)CCCCCCCCCCCCCCCOC(=O)c1c(CCC[C@@H](C)O[Si](C)(C)C(C)(C)C)nc([O-])[n+]2c1CC[C@H]2CC1(CC/C=C\[C@H](CC)O[Si](C(C)C)(C(C)C)C(C)C)OCCO1
GI50 [1]: > 100 µM (inactive) | GI50 [2]: 26.7 µM (inactive) | GI50 [3]: 50.8 µM (inactive) | GI50 [4]: > 100 µM (inactive) | GI50 [5]: 21.9 µM (inactive) | GI50 [7]: > 100 µM (inactive) | GI50 [20]: > 100 µM (inactive) | GI50 [8]: 60.8 µM (inactive) | GI50 [9]: 17.2 µM (inactive) | GI50 [10]: > 100 µM (inactive) | GI50 [11]: > 100 µM (inactive) | GI50 [12]: 18.2 µM (inactive) | GI50 [14]: > 100 µM (inactive) | GI50 [17]: > 100 µM (inactive) | GI50 [18]: > 100 µM (inactive)
